In this assay the test system is MV4-11 cells. The experiment in a line: Cell proliferation assay MV4;11 (CellTiter-Glo, 72 hours). The class given is cell-based. The following applies: Homo sapiens; MV4;11 leukemia cell line, 72 hours; read-out: MV4; 11 IC50. On the procedure: Compounds were evaluated for its capacity to inhibit the proliferation of the MLLr leukemia cell line MV4-11 that harbors an MLL1-AF4 fusion protein. MV4-11 cells were cultured for 72 hours with limiting dilutions of compounds and viability was measured using CellTiter-Glo.
Compounds were dissolved to obtain as 10 mM solution in DMSO. The stock was diluted 1:5 to the top concentration of 2 mM in 100% DMSO. For IC50 determination, serial 1:3.16 dilutions were prepared in 100% DMSO by diluting 20 μL into 43.5 μL of DMSO for 8 concentrations. Each prepared DMSO solution were further diluted 1:500 in the cell culture media to obtain the 2× dosing solutions. The final concentrations of tested compounds in the cell culture media ranged from 0.632 nM to 2000 nM.
MV4-11 cells were cultured in IMDM with 10% FBS and 1× Penicillin-Streptomycin at 5% CO2 and 37° C. A cell suspension was prepared containing 15,000 cells/ml in the culture medium and 100 μL of this suspension was added per well to a 96-well cell culture plate. Then, 100 μL of 2× dosing media containing test compounds were added bringing the total volume to 200 μL. These cells were cultured for 72 hours at 37° C. and 5% CO2 in a humidified incubator.
After 72 hours, the cultured cells were mixed and 100p L was transferred to a 96-well black plate. Cell Titer Glo (100 μl) was then added to this plate. The plate was mixed with shaking for 15 mins at RT, the luminescence was then measured using Tecan Spark 20M spectrophotometer. Cell Viability (%) was determined by RLU of test/RLU average vehicle control*100 and % max inhibition was determined by 100−(% cell viability remaining at the top concentration of compound).

Data on 9 compounds can be found in patent US11919901B2 (Syndax Pharmaceuticals, Inc., priority 2021, dated 2024).

SMILES strings stand for the structures.

As for `CC(C)N(C(=O)c1cc(F)ccc1Oc1cncnc1N1CC2(CCN(C[C@@H]3CC[C@@H](NS(C)(=O)=O)CO3)CC2)C1)C(C)C` [Example 12, 5-Fluoro-N,N-diisopropyl-2-((4-(7-(((2S,5R)-5-(methylsulfonamido)tetrahydro-2H-pyran-2-yl)methyl)-2,7-diazaspiro[3.5]nonan-2-yl)pyrimidin-5-yl)oxy)benzamide], the IC50 is under 0.1 µM.
As for `CCS(=O)(=O)N[C@@H]1CC[C@@H](CN2CCC3(CC2)CN(c2ncncc2Oc2ccc(F)cc2C(=O)N(C(C)C)C(C)C)C3)OC1` [Example 13, 2-((4-(7-(((2S,5R)-5-(Ethylsulfonamido)tetrahydro-2H-pyran-2-yl)methyl)-2,7-diazaspiro[3.5]nonan-2-yl)pyrimidin-5-yl)oxy)-5-fluoro-N,N-diisopropylbenzamide], the IC50 was under 0.1 µM.
With `CC(C)N(C(=O)c1cc(F)ccc1Oc1cncnc1N1CC2(CCN(C[C@@H]3CC[C@@H](NS(=O)(=O)C(C)C)CO3)CC2)C1)C(C)C` [Example 14, 5-Fluoro-N,N-diisopropyl-2-((4-(7-(((2S,5R)-5-((1-methylethyl)sulfonamido)tetrahydro-2H-pyran-2-yl)methyl)-2,7-diazaspiro[3.5]nonan-2-yl)pyrimidin-5-yl)oxy)benzamide], the IC50 is under 0.1 µM.
The figure for `CC(C)N(C(=O)c1cc(F)ccc1Oc1cncnc1N1CC2(CCN(C[C@@H]3CC[C@@H](NS(=O)(=O)C4CC4)CO3)CC2)C1)C(C)C` [Example 15, 2-((4-(7-(((2S,5R)-5-(Cyclopropanesulfonamido)tetrahydro-2H-pyran-2-yl)methyl)-2,7-diazaspiro[3.5]nonan-2-yl)pyrimidin-5-yl)oxy)-5-fluoro-N,N-diisopropylbenzamide] is under 0.1 µM.
Turning to `CC(C)N(C(=O)c1cc(F)ccc1Oc1cncnc1N1CC2(CCN(C[C@@H]3CC[C@@H](NS(=O)(=O)C4COC4)CO3)CC2)C1)C(C)C` [Example 16, 5-Fluoro-N,N-diisopropyl-2-((4-(7-(((2S,5R)-5-(oxetane-3-sulfonamido)tetrahydro-2H-pyran-2-yl)methyl)-2,7-diazaspiro[3.5]nonan-2-yl)pyrimidin-5-yl)oxy)benzamide], the IC50 was under 0.1 µM.
Regarding `CC(C)N(C(=O)c1cc(F)ccc1Oc1cncnc1N1CC2(CCN(C[C@@H]3CC[C@@H](NC(=O)OC(C)(C)C)CO3)CC2)C1)C1CC1` [Example 17, tert-Butyl ((3R,6S)-6-((2-(5-(2-(cyclopropyl(isopropyl)carbamoyl)-4-fluorophenoxy)pyrimidin-4-yl)-2,7-diazaspiro[3.5]nonan-7-yl)methyl)tetrahydro-2H-pyran-3-yl)carbamate], the IC50 was under 0.1 µM.
As for `CCS(=O)(=O)N[C@@H]1CC[C@@H](CN2CCC3(CC2)CN(c2ncncc2Oc2ccc(F)cc2C(=O)N(C(C)C)C2CC2)C3)OC1` [Example 19, N-Cyclopropyl-2-((4-(7-(((2S,5R)-5-(ethylsulfonamido)tetrahydro-2H-pyran-2-yl)methyl)-2,7-diazaspiro[3.5]nonan-2-yl)pyrimidin-5-yl)oxy)-5-fluoro-N-isopropylbenzamide], the IC50 is under 0.1 µM.
`CC(C)N(C(=O)c1cc(F)ccc1Oc1cncnc1N1CC2(CCN(C[C@@H]3CC[C@@H](NS(=O)(=O)C(C)C)CO3)CC2)C1)C1CC1` [Example 20, N-Cyclopropyl-5-fluoro-N-isopropyl-2-((4-(7-(((2S,5R)-5-((1-methylethyl)sulfonamido)tetrahydro-2H-pyran-2-yl)methyl)-2,7-diazaspiro[3.5]nonan-2-yl)pyrimidin-5-yl)oxy)benzamide]: the IC50 is under 0.1 µM.
For the compound `CC(C)N(C(=O)c1cc(F)ccc1Oc1cncnc1N1CC2(CCN(C[C@@H]3CC[C@@H](NS(=O)(=O)C4CC4)CO3)CC2)C1)C1CC1` [Example 21, 2-((4-(7-(((2S,5R)-5-(Cyclopropanesulfonamido)tetrahydro-2H-pyran-2-yl)methyl)-2,7-diazaspiro[3.5]nonan-2-yl)pyrimidin-5-yl)oxy)-N-cyclopropyl-5-fluoro-N-isopropylbenzamide], the IC50 is under 0.1 µM.
